# Data: ChEMBL document CHEMBL1155690, “Antiyeast steroidal saponins from Yucca schidigera (Mohave yucca), a new anti-food-deteriorating agent” (2000)
# Key:
# Format in all cases: functional
# Saccharomyces cerevisiae = assay: Antimicrobial activity against Saccharomyces cerevisiae IFO 203 after 48 hrs by agar dilution method; conditions: IFO 203, 48 h
# Wickerhamomyces anomalus = assay: Antimicrobial activity against Hansenula anomala HUT 7083 after 48 hrs by agar dilution method
# Hanseniaspora uvarum = assay: Antimicrobial activity against Kloeckera apiculata IFO 154 after 48 hrs by agar dilution method; conditions: IFO 154, 48 h
# Candida albicans = assay: Antimicrobial activity against Candida albicans TIMM 0134 after 48 hrs by agar dilution method
# Yamadazyma nakazawae = assay: Antimicrobial activity against Pichia nakazawae HUT 1688 after 48 hrs by agar dilution method
# Debaryomyces hansenii = assay: Antimicrobial activity against Debaryomyces hansenii IFO 18 after 48 hrs by agar dilution method; conditions: IFO 18, 48 h
SMILES,MIC (Saccharomyces cerevisiae),MIC (Wickerhamomyces anomalus),MIC (Hanseniaspora uvarum),MIC (Candida albicans),MIC (Yamadazyma nakazawae),MIC (Debaryomyces hansenii)
CC1CC[C@@]2(OC1)O[C@H]1C[C@H]3[C@@H]4CC[C@@H]5C[C@@H](O[C@@H]6O[C@H](CO)[C@H](O)[C@H](O[C@@H]7OC[C@@H](O)[C@H](O)[C@H]7O)[C@H]6O[C@@H]6O[C@H](CO)[C@@H](O)[C@H](O)[C@H]6O)[C@@H](O)C[C@]5(C)[C@H]4CC[C@]3(C)[C@H]1[C@@H]2C (some centres undefined),100 µg/mL,> 100 µg/mL,> 100 µg/mL,> 100 µg/mL,> 100 µg/mL,100 µg/mL
C[C@H]1CC[C@@]2(OC1)O[C@H]1C[C@H]3[C@@H]4CC[C@@H]5C[C@@H](O[C@@H]6O[C@H](CO)[C@@H](O)[C@H](O[C@@H]7O[C@H](CO)[C@@H](O)[C@H](O)[C@H]7O)[C@H]6O[C@@H]6O[C@H](CO)[C@@H](O)[C@H](O)[C@H]6O)CC[C@]5(C)[C@H]4CC[C@]3(C)[C@H]1[C@@H]2C,6.25 µg/mL,1.56 µg/mL,> 100 µg/mL,> 100 µg/mL,3.13 µg/mL,6.25 µg/mL
C[C@H]1CC[C@@]2(OC1)O[C@H]1C[C@H]3[C@@H]4CC[C@@H]5C[C@@H](O[C@@H]6O[C@H](CO)[C@H](O)[C@H](O[C@@H]7O[C@H](CO)[C@@H](O)[C@H](O)[C@H]7O)[C@H]6O[C@@H]6O[C@H](CO)[C@@H](O)[C@H](O)[C@H]6O)CC[C@]5(C)[C@H]4CC[C@]3(C)[C@H]1[C@@H]2C,12.5 µg/mL,3.13 µg/mL,50 µg/mL,25 µg/mL,6.25 µg/mL,6.25 µg/mL
C=C1CC[C@@]2(OC1)O[C@H]1C[C@H]3[C@@H]4CC[C@@H]5C[C@@H](O[C@@H]6O[C@H](CO)[C@@H](O)[C@H](O[C@@H]7O[C@H](CO)[C@@H](O)[C@H](O)[C@H]7O)[C@H]6O[C@@H]6O[C@H](CO)[C@@H](O)[C@H](O)[C@H]6O)CC[C@]5(C)[C@H]4CC[C@]3(C)[C@H]1[C@@H]2C,12.5 µg/mL,6.13 µg/mL,> 100 µg/mL,12.5 µg/mL,3.13 µg/mL,> 100 µg/mL
C=C1CC[C@@]2(OC1)O[C@H]1C[C@H]3[C@@H]4CC[C@@H]5C[C@@H](O[C@@H]6O[C@H](CO)[C@H](O)[C@H](O[C@@H]7OC[C@@H](O)[C@H](O)[C@H]7O)[C@H]6O[C@@H]6O[C@H](CO)[C@@H](O)[C@H](O)[C@H]6O)CC[C@]5(C)[C@H]4CC[C@]3(C)[C@H]1[C@@H]2C,12.5 µg/mL,3.13 µg/mL,> 100 µg/mL,12.5 µg/mL,3.13 µg/mL,> 100 µg/mL
C=C1CC[C@@]2(OC1)O[C@H]1C[C@H]3[C@@H]4CC[C@@H]5C[C@@H](O[C@@H]6O[C@H](CO)[C@@H](O)[C@H](O[C@@H]7OC[C@@H](O)[C@H](O)[C@H]7O)[C@H]6O[C@@H]6O[C@H](CO)[C@@H](O)[C@H](O)[C@H]6O)CC[C@]5(C)[C@H]4CC(=O)[C@]3(C)[C@H]1[C@@H]2C,> 100 µg/mL,> 100 µg/mL,> 100 µg/mL,> 100 µg/mL,> 100 µg/mL,> 100 µg/mL
C=C1CC[C@@]2(OC1)O[C@H]1C[C@H]3[C@@H]4CC[C@@H]5C[C@@H](O[C@@H]6O[C@H](CO)[C@H](O)[C@H](O)[C@H]6O[C@@H]6O[C@H](CO)[C@@H](O)[C@H](O)[C@H]6O)[C@@H](O)C[C@]5(C)[C@H]4CC[C@]3(C)[C@H]1[C@@H]2C,> 100 µg/mL,> 100 µg/mL,> 100 µg/mL,> 100 µg/mL,> 100 µg/mL,> 100 µg/mL
C=C1CC[C@@]2(OC1)O[C@H]1C[C@H]3[C@@H]4CC[C@@H]5C[C@@H](O[C@@H]6O[C@H](CO)[C@H](O)[C@H](O[C@@H]7OC[C@@H](O)[C@H](O)[C@H]7O)[C@H]6O[C@@H]6O[C@H](CO)[C@@H](O)[C@H](O)[C@H]6O)[C@@H](O)C[C@]5(C)[C@H]4CC[C@]3(C)[C@H]1[C@@H]2C,100 µg/mL,> 100 µg/mL,> 100 µg/mL,100 µg/mL,100 µg/mL,> 100 µg/mL
C=C1CC[C@@]2(OC1)O[C@H]1C[C@H]3[C@@H]4CC[C@@H]5C[C@@H](O[C@@H]6O[C@H](CO)[C@@H](O)[C@H](O[C@@H]7OC[C@@H](O)[C@H](O)[C@H]7O)[C@H]6O[C@@H]6O[C@H](CO)[C@@H](O)[C@H](O)[C@H]6O)CC[C@]5(C)[C@H]4CC[C@]3(C)[C@H]1[C@@H]2C,3.13 µg/mL,3.13 µg/mL,12.5 µg/mL,6.25 µg/mL,3.13 µg/mL,6.25 µg/mL
C[C@H]1CC[C@@]2(OC1)O[C@H]1C[C@H]3[C@@H]4CC[C@@H]5C[C@@H](O[C@@H]6O[C@H](CO)[C@@H](O)[C@H](O)[C@H]6O[C@@H]6O[C@H](CO)[C@@H](O)[C@H](O)[C@H]6O)CC[C@]5(C)[C@H]4CC[C@]3(C)[C@H]1[C@@H]2C,12.5 µg/mL,6.25 µg/mL,> 100 µg/mL,12.5 µg/mL,3.13 µg/mL,> 100 µg/mL
C[C@H]1CC[C@@]2(OC1)O[C@H]1C[C@H]3[C@@H]4CC[C@@H]5C[C@@H](O[C@@H]6O[C@H](CO)[C@H](O)[C@H](O)[C@H]6O[C@@H]6O[C@H](CO)[C@@H](O)[C@H](O)[C@H]6O)[C@@H](O)C[C@]5(C)[C@H]4CC[C@]3(C)[C@H]1[C@@H]2C,> 100 µg/mL,> 100 µg/mL,> 100 µg/mL,> 100 µg/mL,100 µg/mL,> 100 µg/mL
CC1CC[C@@]2(OC1)O[C@H]1C[C@H]3[C@@H]4CC[C@@H]5C[C@@H](O[C@@H]6O[C@H](CO)[C@@H](O)[C@H](O[C@@H]7OC[C@@H](O)[C@H](O)[C@H]7O)[C@H]6O[C@@H]6O[C@H](CO)[C@@H](O)[C@H](O)[C@H]6O)CC[C@]5(C)[C@H]4CC[C@]3(C)[C@H]1[C@@H]2C (mixture of isomers),6.25 µg/mL,3.13 µg/mL,> 100 µg/mL,50 µg/mL,3.13 µg/mL,6.25 µg/mL
CC1CC[C@@]2(OC1)O[C@H]1C[C@H]3[C@@H]4CC[C@@H]5C[C@@H](O[C@@H]6O[C@H](CO)[C@@H](O)[C@H](O[C@@H]7OC[C@@H](O)[C@H](O)[C@H]7O)[C@H]6O[C@@H]6O[C@H](CO)[C@@H](O)[C@H](O)[C@H]6O)CC[C@]5(C)[C@H]4CC(=O)[C@]3(C)[C@H]1[C@@H]2C (mixture of isomers),100 µg/mL,100 µg/mL,> 100 µg/mL,> 100 µg/mL,> 100 µg/mL,> 100 µg/mL
CC1CC[C@@]2(OC1)O[C@H]1C[C@H]3[C@@H]4CC[C@@H]5C[C@@H](O[C@@H]6O[C@H](CO)[C@H](O)[C@H](O[C@@H]7OC[C@@H](O)[C@H](O)[C@H]7O)[C@H]6O[C@@H]6O[C@H](CO)[C@@H](O)[C@H](O)[C@H]6O)CC[C@]5(C)[C@H]4CC[C@]3(C)[C@H]1[C@@H]2C (mixture of isomers),25 µg/mL,3.13 µg/mL,> 100 µg/mL,> 100 µg/mL,12.5 µg/mL,50 µg/mL
